pIC50: −log10 of the molar value.
target: LRRK2 G2019S enzyme (Homo sapiens (Human), UniProt Q5S007, G2019S); experiment: LRRK2 G2019S TR-FRET biochemical kinase assay (LRRKtide substrate); details: Table A-2; 5 nM LRRK2, 134 μM ATP, 60 minute reaction, 23° C.
Procedure: LRRK2 G2019S enzyme, Substrate (LRRKtide), ATP, TR-FRET dilution buffer, pLRRKtide antibody, 384-well assay plate, and DMSO.
50 mM Tris pH 7.5, 10 mM MgCl2, 1 mM EGTA, 0.01% Brij-35, 2 mM DTT, 5 nM LRRK2, 134 μM ATP, 60 minute reaction time, 23° C. reaction temperature, and 10 μL total reaction volume.
1×TR-FRET dilution buffer, 10 mM EDTA, 2 nM antibody, 23° C. reaction temperature, and 10 μL total reaction volume.
Compound solutions were prepared by initially diluting to 1 mM with DMSO. 35 μL of reference compound solution, 35 μL of test compound solution, and 35 μL HPE were successively added to the source plate (384-well assay plate, Labcyte). The plates were centrifuged at 2500 rpm for 1 minute and sealed in foil. POD was used to perform a 3.162 fold serial dilution and 100 nL of reference compound solution, test compound solution, HPE and ZPE were transferred to assay plates. The assay plate was centrifuged at 2500 rpm for 1 minute, and sealed with foil.
To perform the enzyme reaction, 5 μL of LRRKtide substrate and kinase mixture in assay buffer was added to all wells of the assay plate. The plate was centrifuged to concentrate the mixture at the bottom of the wells. The assay plate was incubated at 23° C. for 20 minutes. Following incubation, 5 μL of 2×ATP in assay buffer was added to each well, and plates were centrifuged to concentrate the mixture at the bottom of the wells. The plate was incubated at 23° C. for 60 minutes.
To perform the detection of the reaction, EDTA completely mixed in TR-FRET dilution buffer was added to antibody reagent. 10 μL of detection reagent was added to all wells of each well of the assay-plate and the plate was centrifuged to concentrate the mixture at the bottom of the wells. The plate was then incubated at 23° C. for 60 minutes. Plates were read on Perkin Elmer Envision 2104 instrument in TR-FRET mode using a 340 nm excitation filter, 520 nm fluorescence emission filter, and 490 or 495 nm terbium emission filter.
B-2, C2, and D-4 respectively.

Sequence of LRRK2 G2019S enzyme (Q5S007 whole entry G2019S): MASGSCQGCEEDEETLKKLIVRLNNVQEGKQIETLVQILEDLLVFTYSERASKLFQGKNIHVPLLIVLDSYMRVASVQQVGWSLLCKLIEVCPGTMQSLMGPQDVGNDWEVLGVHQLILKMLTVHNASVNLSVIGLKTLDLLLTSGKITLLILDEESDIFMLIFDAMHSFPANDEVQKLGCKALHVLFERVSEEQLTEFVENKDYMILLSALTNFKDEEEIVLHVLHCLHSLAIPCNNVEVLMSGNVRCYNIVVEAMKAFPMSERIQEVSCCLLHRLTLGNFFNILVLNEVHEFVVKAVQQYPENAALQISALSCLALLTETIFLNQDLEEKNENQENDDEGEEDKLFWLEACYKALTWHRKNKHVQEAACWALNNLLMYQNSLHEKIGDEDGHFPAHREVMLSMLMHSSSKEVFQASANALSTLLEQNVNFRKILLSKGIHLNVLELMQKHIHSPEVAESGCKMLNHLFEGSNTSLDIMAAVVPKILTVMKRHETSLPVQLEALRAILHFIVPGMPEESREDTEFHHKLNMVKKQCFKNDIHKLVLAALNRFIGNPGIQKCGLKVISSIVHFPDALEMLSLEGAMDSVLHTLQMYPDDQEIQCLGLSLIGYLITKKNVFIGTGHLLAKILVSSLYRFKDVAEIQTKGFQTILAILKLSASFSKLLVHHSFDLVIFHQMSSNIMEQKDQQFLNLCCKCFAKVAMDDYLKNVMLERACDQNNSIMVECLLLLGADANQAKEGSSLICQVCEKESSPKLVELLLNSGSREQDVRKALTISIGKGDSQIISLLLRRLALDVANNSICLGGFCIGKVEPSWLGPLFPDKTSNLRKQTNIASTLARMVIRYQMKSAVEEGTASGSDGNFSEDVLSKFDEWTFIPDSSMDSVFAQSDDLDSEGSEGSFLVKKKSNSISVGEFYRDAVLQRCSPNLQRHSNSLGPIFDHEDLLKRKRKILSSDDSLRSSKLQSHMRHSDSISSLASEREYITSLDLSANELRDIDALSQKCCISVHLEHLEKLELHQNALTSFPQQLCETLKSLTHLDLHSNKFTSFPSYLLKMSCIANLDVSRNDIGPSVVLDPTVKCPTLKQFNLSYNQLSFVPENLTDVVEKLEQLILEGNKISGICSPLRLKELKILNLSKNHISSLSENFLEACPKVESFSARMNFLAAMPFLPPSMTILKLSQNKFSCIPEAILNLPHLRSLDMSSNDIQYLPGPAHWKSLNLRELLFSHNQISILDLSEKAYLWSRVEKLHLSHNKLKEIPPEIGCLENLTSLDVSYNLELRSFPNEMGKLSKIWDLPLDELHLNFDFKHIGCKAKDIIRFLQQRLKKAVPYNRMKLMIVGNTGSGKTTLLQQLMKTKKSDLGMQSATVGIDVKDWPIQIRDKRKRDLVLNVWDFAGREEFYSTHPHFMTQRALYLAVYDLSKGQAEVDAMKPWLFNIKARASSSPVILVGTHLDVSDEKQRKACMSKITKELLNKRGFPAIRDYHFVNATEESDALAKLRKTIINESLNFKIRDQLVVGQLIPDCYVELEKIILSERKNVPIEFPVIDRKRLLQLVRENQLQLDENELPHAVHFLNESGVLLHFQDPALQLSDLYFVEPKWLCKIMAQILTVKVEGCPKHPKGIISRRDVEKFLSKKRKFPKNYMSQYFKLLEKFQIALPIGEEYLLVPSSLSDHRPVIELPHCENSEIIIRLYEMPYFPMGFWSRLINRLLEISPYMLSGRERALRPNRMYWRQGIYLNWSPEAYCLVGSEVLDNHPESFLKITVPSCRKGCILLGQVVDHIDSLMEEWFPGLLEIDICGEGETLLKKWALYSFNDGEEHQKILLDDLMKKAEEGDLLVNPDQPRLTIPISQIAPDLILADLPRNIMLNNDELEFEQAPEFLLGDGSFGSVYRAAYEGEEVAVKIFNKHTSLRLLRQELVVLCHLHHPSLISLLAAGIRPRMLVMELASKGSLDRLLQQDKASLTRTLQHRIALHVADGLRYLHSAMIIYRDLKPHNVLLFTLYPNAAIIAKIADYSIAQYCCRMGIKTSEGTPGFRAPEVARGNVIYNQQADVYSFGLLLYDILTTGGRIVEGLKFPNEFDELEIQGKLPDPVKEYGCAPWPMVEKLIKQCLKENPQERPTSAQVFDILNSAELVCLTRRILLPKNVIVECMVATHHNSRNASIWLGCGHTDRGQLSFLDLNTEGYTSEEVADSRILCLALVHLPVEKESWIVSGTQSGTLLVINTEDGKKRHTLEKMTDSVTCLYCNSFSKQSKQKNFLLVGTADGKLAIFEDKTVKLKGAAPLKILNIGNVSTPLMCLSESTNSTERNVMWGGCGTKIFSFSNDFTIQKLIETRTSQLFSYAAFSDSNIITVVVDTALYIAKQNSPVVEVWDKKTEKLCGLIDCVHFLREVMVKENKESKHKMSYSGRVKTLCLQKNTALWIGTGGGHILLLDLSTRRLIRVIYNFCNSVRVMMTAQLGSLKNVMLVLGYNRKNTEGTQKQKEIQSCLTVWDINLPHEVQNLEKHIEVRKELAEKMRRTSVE

Compound | pIC50
Cc1nn(C(C)(C)C#N)cc1Nc1ncc(C(F)(F)F)c(C2CC2)n1 [Compound A-1, 2-[4-[(5-trifluoromethyl-4-cyclopropyl-pyrimidin-2-yl)amino]-3-methyl-pyrazol-1-yl]-2-methyl-propanenitrile] | > 7.52
Cc1nn(C(C)(C)C#N)cc1Nc1ncc(Cl)c(C2CC2)n1 [Compound A-2, 2-[4-[(5-chloro-4-cyclopropyl-pyrimidin-2-yl)amino]-3-methyl-pyrazol-1-yl]-2-methyl-propanenitrile] | > 7.52
Cc1nn(C(C)(C)C#N)cc1Nc1ncc(C#N)c(C2CC2)n1 [Compound A-3, 2-[[1-(1-cyano-1-methyl-ethyl)-3-methyl-pyrazol-4-yl]amino]-4-cyclopropyl-pyrimidine-5-carbonitrile] | < 7.22
Cc1nn(C(C)(C)C#N)cc1Nc1ncc(C(F)(F)F)c(C2=CCCC2)n1 [Compound A-4, 2-[4-[[4-(cyclopenten-1-yl)-5-(trifluoromethyl)pyrimidin-2-yl]amino]-3-methyl-pyrazol-1-yl]-2-methyl-propanenitrile] | 7.22 to 7.52
Cn1nc(C(C)(C)C#N)cc1Nc1ncc(C(F)(F)F)c(C2CC2)n1 [Compound A-5, 2-(5-((4-cyclopropyl-5-(trifluoromethyl)pyrimidin-2-yl)amino)-1-methyl-1H-pyrazol-3-yl)-2-methylpropanenitrile] | 7.22 to 7.52
Cc1nn(S(C)(=O)=O)cc1Nc1ncc(C(F)(F)F)c(C2CC2)n1 [Compound A-7, 4-cyclopropyl-N-(3-methyl-1-methylsulfonyl-pyrazol-4-yl)-5-(trifluoromethyl)pyrimidin-2-amine] | > 7.52
Cc1nn(C(C)(C)c2ncn(C)n2)cc1Nc1ncc(C(F)(F)F)c(C2CC2)n1 [Compound A-8, 4-cyclopropyl-N-(3-methyl-1-(2-(1-methyl-1H-1,2,4-triazol-3-yl)propan-2-yl)-1H-pyrazol-4-yl)-5-(trifluoromethyl)pyrimidin-2-amine] | > 7.52
Cc1nn(C(C)(C)C#N)cc1Nc1ncc(C(F)(F)F)c(-c2cnn(C)c2)n1 [Compound A-9, 2-methyl-2-(3-methyl-4-((4-(1-methyl-1H-pyrazol-4-yl)-5-(trifluoromethyl)pyrimidin-2-yl)amino)-1H-pyrazol-1-yl)propanenitrile] | 7.22 to 7.52
Cc1nn(C(C)(C)C#N)cc1Nc1ncc(C(F)(F)F)c(C2CCCC2)n1 [Compound A-10, 2-[4-[[4-cyclopentyl-5-(trifluoromethyl)pyrimidin-2-yl]amino]-3-methyl-pyrazol-1-yl]-2-methyl-propanenitrile] | < 7.22
Cc1nn(C(C)(C)C#N)cc1Nc1ncc(C(F)(F)F)c(C2CCC2)n1 [Compound A-11, 2-[4-[[4-cyclobutyl-5-(trifluoromethyl)pyrimidin-2-yl]amino]-3-methyl-pyrazol-1-yl]-2-methyl-propanenitrile] | 7.22 to 7.52
Cc1nn(C2COC2)cc1Nc1ncc(C(F)(F)F)c(C2CC2)n1 [Compound A-14, 4-cyclopropyl-N-[3-methyl-1-(oxetan-3-yl)pyrazol-4-yl]-5-(trifluoromethyl)pyrimidin-2-amine] | > 7.52
Cc1c(Nc2ncc(C(F)(F)F)c(C3CC3)n2)cnn1C1COC1 [Compound A-15, 4-cyclopropyl-N-[5-methyl-1-(oxetan-3-yl)pyrazol-4-yl]-5-(trifluoromethyl)pyrimidin-2-amine] | > 7.52
[2H]C([2H])([2H])n1cnc(C(C)(C)n2cc(Nc3ncc(C(F)(F)F)c(C4CC4)n3)c(C)n2)n1 [Compound A-16, 4-cyclopropyl-N-[3-methyl-1-[1-methyl-1-[1-(trideuteriomethyl)-1,2,4-triazol-3-yl]ethyl]pyrazol-4-yl]-5-(trifluoromethyl)pyrimidin-2-amine] | > 7.52
CC(C)(C#N)n1cc(Nc2ncc(C(F)(F)F)c(C3CC3)n2)c(Cl)n1 [Compound A-17, 2-(3-chloro-4-((4-cyclopropyl-5-(trifluoromethyl)pyrimidin-2-yl)amino)-1H-pyrazol-1-yl)-2-methylpropanenitrile] | 7.22 to 7.52
Cc1c(Nc2ncc(C(F)(F)F)c(C3CC3)n2)cnn1CC(C)(C)O [Compound A-18, 1-[4-[[4-cyclopropyl-5-(trifluoromethyl)pyrimidin-2-yl]amino]-5-methyl-pyrazol-1-yl]-2-methyl-propan-2-ol] | 7.22 to 7.52
Cc1nn(CC(C)(C)O)cc1Nc1ncc(C(F)(F)F)c(C2CC2)n1 [Compound A-19, 1-[4-[[4-cyclopropyl-5-(trifluoromethyl)pyrimidin-2-yl]amino]-3-methyl-pyrazol-1-yl]-2-methyl-propan-2-ol] | 7.22 to 7.52
CC(=O)N1CCC(n2ncc(Nc3ncc(C(F)(F)F)c(C4CC4)n3)c2C)CC1 [Compound A-20, 1-[4-[4-[[4-cyclopropyl-5-(trifluoromethyl)pyrimidin-2-yl]amino]-5-methyl-pyrazol-1-yl]-1-piperidyl]ethanone] | > 7.52
CC(=O)N1CCC(n2cc(Nc3ncc(C(F)(F)F)c(C4CC4)n3)c(C)n2)CC1 [Compound A-21, 1-[4-[4-[[4-cyclopropyl-5-(trifluoromethyl)pyrimidin-2-yl]amino]-3-methyl-pyrazol-1-yl]-1-piperidyl]ethanone] | 7.22 to 7.52
Cc1nn(C(C)(C)c2ccnn2C)cc1Nc1ncc(C(F)(F)F)c(C2CC2)n1 [Compound A-22, 4-cyclopropyl-N-(3-methyl-1-(2-(1-methyl-1H-pyrazol-5-yl)propan-2-yl)-1H-pyrazol-4-yl)-5-(trifluoromethyl)pyrimidin-2-amine] | < 7.22
Cc1nn(C(C)(C)c2ccn(C)n2)cc1Nc1ncc(C(F)(F)F)c(C2CC2)n1 [Compound A-23, 4-cyclopropyl-N-(3-methyl-1-(2-(1-methyl-1H-pyrazol-3-yl)propan-2-yl)-1H-pyrazol-4-yl)-5-(trifluoromethyl)pyrimidin-2-amine] | > 7.52

same assay, conditions: Table D-4; 5 nM LRRK2, 134 μM ATP, 60 minute reaction, 23° C.

Compound | pIC50
CNc1nc(Nc2cn(C3CCn4ccnc43)nc2C)ncc1C(F)(F)F (single isomer, unassigned) [Compound D-3, N2-[1-[6,7-dihydro-5H-pyrrolo[1,2-a]imidazol-7-yl]-3-methyl-1H-pyrazol-4-yl]-N4-methyl-5-(trifluoromethyl)pyrimidine-2,4-diamine] | < 7.22
CNc1nc(Nc2cn(C3CCn4ccnc43)nc2C)ncc1C(F)(F)F (single isomer, unassigned) [Compound D-4, N2-[1-[6,7-dihydro-5H-pyrrolo[1,2-a]imidazol-7-yl]-3-methyl-1H-pyrazol-4-yl]-N4-methyl-5-(trifluoromethyl)pyrimidine-2,4-diamine] | > 7.52
CCNc1nc(Nc2cn(C3CCn4ccnc43)nc2C)ncc1C(F)(F)F (single isomer, unassigned) [Compound D-23, N2-(1-(6,7-dihydro-5H-pyrrolo[1,2-a]imidazol-7-yl)-3-methyl-1H-pyrazol-4-yl)-N4-ethyl-5-(trifluoromethyl)pyrimidine-2,4-diamine] | < 7.22
CCNc1nc(Nc2cn(C3CCn4ccnc43)nc2C)ncc1C(F)(F)F (single isomer, unassigned) [Compound D-24, N2-(1-(6,7-dihydro-5H-pyrrolo[1,2-a]imidazol-7-yl)-3-methyl-1H-pyrazol-4-yl)-N4-ethyl-5-(trifluoromethyl)pyrimidine-2,4-diamine] | > 7.52
